Data published in patent publication US20260022098A1, “BULLEYACONITINE A DERIVATIVE WITH ANALGESIC ACTIVITY, AND PREPARATION METHOD AND APPLICATION THEREOF” (priority 2023, published 2026).

Key:
Kunming mice [1] = assay: Analgesic activity by acetic acid-induced writhing method (writhing inhibition rate, ED50); type: in vivo; conditions: Mus musculus, sc, read-out: Analgesia rate (%) ± SEM
Procedure: (§1) The experimental animals were Kunming mice (male:female=1:1), weighed 22+2 g, which were provided by Chengdu dossy experimental animals Co., ltd., China. The mice were kept in the animal room of the School of Life Science and Engineering, Southwest Jiaotong University, where the animal room was set at a temperature of 23±2° C., a humidity of […] and a photoperiod of 16:8 h (L:D). Before the experiment, the mice were freely fed for 2-3 days with water and feed to adapt to the new environment. Then, the mice were treated by water and food fasting for 12 h. 10 animals were allocated to each group to ensure that there are at least 6 sets of valid data in each group. The animal experiments were carried out in strict accordance with the national regulations on the management of experimental animals.
(§2) The compounds prepared in the examples provided herein (test sample set) and bulleyaconitine A (positive control set) were all dissolved with 0.1 mol/L HCl according to a molar ratio of 1:1, and then diluted with physiological saline to a concentration to be determined. Blank control was physiological saline containing 0.1 mol/L HCl. The animals in the control groups were subjected to the same treatment as those in experimental groups except that samples to be test were replaced with physiological saline.
(1) Determination of Analgesic Activity Through an Acetic Acid-Induced Writhing Method
10 mice were randomly selected, male:female=1:1, were placed in independent cages. Each mouse was injected subcutaneously with the sample solution mentioned above at a dose of 0.1 mL/10 g body weight. After 15 min, a 0.7% acetic acid solution was intraperitoneally injected. A number of writhing reactions in each mouse within 15 minutes was recorded. The group that the mice were injected with physiological saline subcutaneously was the blank group; the group that the mice were injected with the sample to be tested was the experimental group; and the group that the mice were injected with bulleyaconitine A was the positive group. The analgesic activity was represented by a percentage of the reduced number of writhing compared to the blank group (writhing inhibition rate), which were specifically as follows: writhing inhibition rate (analgesic activity)=(average number of writhing times in the blank group-average number of writhing times in the experimental group)/average number of writhing times in the blank group×100%.
Median Effective Dose (ED50) Determination
The sample to be tested was dissolved with 0.1 mol/L HCl according to the amount of the substance ratio of 1:1, and diluted with physiological saline according to the proportional series to obtain at least 5 groups with different dose concentrations. The writhing inhibition rate of each dose group was tested according to the acetic acid-induced writhing method mentioned above. The obtained dose-writhing inhibition data was entered into the statistical product and service solutions (SPSS) software (version 17.2), and the ED50 of the sample to be tested was calculated through the Probit regression method.

Kunming mice [2] = assay: Acute toxicity / median lethal dose (LD50) determination, subcutaneous injection; type: in vivo; design: key to Acute toxicity: if death occurred, (+) represented as positive; if no death occurred, (−) represented as negative; conditions: mice administered 20 mg/kg subcutaneously, presence of death within 24 h
Procedure: as §1, §2
(2) Median Lethal Dose (LD50) Determination
The sample to be tested was dissolved with 0.1 mol/L HCl according to the amount of the substance ratio of 1:1, and diluted with physiological saline according to the required concentration. 10 mice in each group were randomly selected, half of which were male and half of which were female, and were placed in independent cages. Each mouse was injected subcutaneously with different sample solutions to be tested according to a dose of 0.1 mL/10 g body weight. In the preliminary toxicity experiment, the measured concentration was 20 mg/kg, and then based on the survival rate of the experimental animals in the preliminary experiment, the sample to be tested was set to at least 5 groups with different concentration dose according to the proportional series. The survival rate of mice within 24 h was recorded. The obtained dose-survival rate data was input into the SPSS software (version 17.2), and the LD50 of the sample was calculated according to the Probit regression method.

Structure (SMILES) | inhibition in vivo at 0.05 mg/kg (Kunming mice [1]) [%] | Acute toxicity (Kunming mice [2])
CCN1C[C@]2(COC)CC[C@H](OC)[C@@]34C5C[C@]6(OC(=O)c7ccc(Cl)s7)[C@@H](OC)C[C@@](OC(C)=O)(C5[C@H]6OC(=O)c5ccc(OC)cc5)C([C@H](OC)C23)[C@@H]14 (stereo partly shown) [Compound 22] | 6.27 ± 2.3 | −
CCN1C[C@]2(COC)CC[C@H](OC)[C@@]34C5C[C@]6(OC(=O)C7CCOCC7)[C@@H](OC)C[C@@](OC(C)=O)(C5[C@H]6OC(=O)c5ccc(OC)cc5)C([C@H](OC)C23)[C@@H]14 (stereo partly shown) [Compound 25] | 23 ± 0.8 | −
CCN1C[C@]2(COC)CC[C@H](OC)[C@@]34C5C[C@]6(OC(=O)C7CCOCC7)[C@@H](OC)C[C@@](OC)(C5[C@H]6OC(=O)C5CCOCC5)C([C@H](OC)C23)[C@@H]14 (stereo partly shown) [Compound 26] | 30.5 ± 1 | −
CCN1C[C@]2(COC)CC[C@H](OC)[C@@]34C5C[C@]6(OC(=O)c7cccnc7)[C@@H](OC)C[C@@](OC)(C5[C@H]6OC(=O)c5cccnc5)C([C@H](OC)C23)[C@@H]14 (stereo partly shown) [Compound 30] | 31.1 ± 2.4 | −
CCN1C[C@]2(COC)CC[C@H](OC)[C@@]34C5C[C@]6(OC(=O)c7ccc(OC)cc7)[C@@H](OC)C[C@@](OC)(C5[C@H]6OC(=O)c5ccc(OC)cc5)C([C@H](OC)C23)[C@@H]14 (stereo partly shown) [Compound 31] | 17 ± 2.2 | −
CCN1C[C@]2(COC)CC[C@H](OC)[C@@]34C5C[C@]6(OC(=O)c7ccco7)[C@@H](OC)C[C@@](OC)(C5[C@H]6OC(=O)c5ccco5)C([C@H](OC)C23)[C@@H]14 (stereo partly shown) [Compound 32] | 37.3 ± 1.4 | −
CCN1C[C@]2(COC)CC[C@H](OC)[C@@]34C5C[C@]6(OC(=O)c7ccco7)[C@@H](OC)C[C@@](OC)(C5[C@H]6OC(=O)c5ccc(OC)cc5)C([C@H](OC)C23)[C@@H]14 (stereo partly shown) [Compound 33] | 30.2 ± 2.6 | −
CCN1C[C@]2(COC)CC[C@H](OC)[C@@]34C5C[C@]6(OC(=O)C7CCCCC7)[C@@H](OC)C[C@@](OC)(C5[C@H]6OC(=O)C5CCCCC5)C([C@H](OC)C23)[C@@H]14 (stereo partly shown) [Compound 34] | 37 ± 1.4 | −
CCOc1ccc(C(=O)O[C@@H]2C3C4C[C@]2(OC(=O)c2ccc(OCC)cc2)[C@@H](OC)C[C@]3(OCC)C2[C@H](OC)C3[C@@]5(COC)CC[C@H](OC)[C@@]43[C@@H]2N(CC)C5)cc1 (stereo partly shown) [Compound 35] | 0 | −
CCOc1ccc(C(=O)O[C@]23CC4C([C@H]2OC(=O)c2ccc(OC)cc2)[C@](OCC)(C[C@@H]3OC)C2[C@H](OC)C3[C@@]5(COC)CC[C@H](OC)[C@@]43[C@@H]2N(CC)C5)cc1 (stereo partly shown) [Compound 36] | 13.6 ± 2.5 | −
CCOc1ccc(C(=O)O[C@]23CC4C([C@H]2OC(=O)c2ccc(OC)cc2)[C@](OC(C)=O)(C[C@@H]3OC)C2[C@H](OC)C3[C@@]5(COC)CC[C@H](OC)[C@@]43[C@@H]2N(CC)C5)cc1 (stereo partly shown) [Compound 37] | 21.2 ± 1.7 | −
CCN1C[C@]2(COC)CC[C@H](OC)[C@@]34C5C[C@]6(OC(=O)c7ccc([N+](=O)[O-])cc7)[C@@H](OC)C[C@@](OC(C)=O)(C5[C@H]6OC(=O)c5ccc(OC)cc5)C([C@H](OC)C23)[C@@H]14 (stereo partly shown) [Compound 40] | 31.9 ± 1.8 | −
CCO[C@]12C[C@H](OC)[C@@]3(OC(C)=O)CC(C1[C@H]3OC(C)=O)[C@]13C4[C@@H](OC)C2[C@H]1N(CC)C[C@]4(COC)CC[C@@H]3OC (stereo partly shown) [Compound 41] | 18.5 ± 2.1 | −
CCO[C@]12C[C@H](OC)[C@@]3(OC(C)=O)CC(C1[C@H]3OC(=O)c1ccc(OC)cc1)[C@]13C4[C@@H](OC)C2[C@H]1N(CC)C[C@]4(COC)CC[C@@H]3OC (stereo partly shown) [Compound 42] | 23 ± 1.7 | −
